Results as given in US12708630B2, “Combined therapy of 4′-thio-5-aza-2′-deoxycytidine and Venetoclax” (PINOTBIO, INC., priority 2021, dated 2026).

Experiments:
Experiment in all cases: drug activity profiling cytotoxicity
Assay type in all cases: cell-based
BHT-101 = settings: Homo sapiens; BHT-101 cell line, Endocrine (Thyroid); read-out: Aza-T-dCyd IC50
Outline: (§1)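 Cell lines (200 in total) were exposed to Aza-T-dCyd, and cytotoxicity was profiled to support biomarker discovery.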

Hs 852.T = Hs 852.T cell line, Skin (Melanoma); read-out: Aza-T-dCyd IC50
Outline: as §1

U-87 MG = settings: Homo sapiens; U-87 MG cell line, CNS (Glioma); read-out: Aza-T-dCyd IC50
Outline: as §1

MCF7 = settings: Homo sapiens; MCF7 cell line, Breast; read-out: Aza-T-dCyd IC50
Outline: as §1

AU565 = settings: Homo sapiens; AU565 cell line, Breast; read-out: Aza-T-dCyd IC50
Outline: as §1

OE33 = settings: Homo sapiens; OE33 cell line, Head and Neck; read-out: Aza-T-dCyd IC50
Outline: as §1

SJRH30 = settings: Homo sapiens; SJRH30 cell line, Sarcoma; read-out: Aza-T-dCyd IC50
Outline: as §1

C32 = settings: Homo sapiens; C32 cell line, Skin (Melanoma); read-out: Aza-T-dCyd IC50
Outline: as §1

BV-173 = settings: Homo sapiens; BV-173 cell line, CML; read-out: Aza-T-dCyd IC50
Outline: as §1

BT474 = settings: Homo sapiens, BT-474; BT474 cell line, Breast; read-out: Aza-T-dCyd IC50
Outline: as §1

NCIH441 = settings: Homo sapiens, NCI-H441; NCIH441 cell line, Lung (NSCLC); read-out: Aza-T-dCyd IC50
Outline: as §1

NCI-H69 = settings: Homo sapiens; NCI-H69 cell line, Lung (SCLC); read-out: Aza-T-dCyd IC50
Outline: as §1

Daudi = settings: Homo sapiens; Daudi cell line, Burkitt's lymphoma; read-out: Aza-T-dCyd IC50
Outline: as §1

A375 = settings: Homo sapiens, A-375; A375 cell line, Skin (Melanoma); read-out: Aza-T-dCyd IC50
Outline: as §1

KATO III = settings: Homo sapiens; KATO III cell line, Stomach; read-out: Aza-T-dCyd IC50
Outline: as §1

Hs 746T = settings: Homo sapiens, Hs746T; Hs 746T cell line, Stomach; read-out: Aza-T-dCyd IC50
Outline: as §1

L-428 = settings: Homo sapiens; L-428 cell line, Hodgkin's lymphoma; read-out: Aza-T-dCyd IC50
Outline: as §1

SW1463 = settings: Homo sapiens; SW1463 cell line, Colon; read-out: Aza-T-dCyd IC50
Outline: as §1

MEG01 = settings: Homo sapiens, MEG-01; MEG01 cell line, CML; read-out: Aza-T-dCyd IC50
Outline: as §1

NTERA-2 cl.D1 = settings: Homo sapiens; NTERA-2 cl.D1 cell line, Testis; read-out: Aza-T-dCyd IC50
Outline: as §1

A-673 = settings: Homo sapiens, A673; A-673 cell line, Sarcoma; read-out: Aza-T-dCyd IC50
Outline: as §1

Colo 320DM = settings: Homo sapiens; Colo 320DM cell line, Colon; read-out: Aza-T-dCyd IC50
Outline: as §1

H9 = settings: Homo sapiens; H9 cell line, T-cell Lymphoma; read-out: Aza-T-dCyd IC50
Outline: as §1

HepG2 = settings: Homo sapiens; HepG2 cell line, Liver; read-out: Aza-T-dCyd IC50
Outline: as §1

ACHN = settings: Homo sapiens; ACHN cell line, Kidney; read-out: Aza-T-dCyd IC50
Outline: as §1

SKO-007 = SKO-007 cell line, B-cell myeloma; read-out: Aza-T-dCyd IC50
Outline: as §1

YAPC = settings: Homo sapiens; YAPC cell line, Pancreas; read-out: Aza-T-dCyd IC50
Outline: as §1

BT20 = settings: Homo sapiens, BT-20; BT20 cell line, Breast; read-out: Aza-T-dCyd IC50
Outline: as §1

PSN-1 = settings: Homo sapiens, PSN1; PSN-1 cell line, Pancreas; read-out: Aza-T-dCyd IC50
Outline: as §1

SU.86.86 = settings: Homo sapiens; SU.86.86 cell line, Pancreas; read-out: Aza-T-dCyd IC50
Outline: as §1

MG-63 = settings: Homo sapiens; MG-63 cell line, Bone (Osteosarcoma); read-out: Aza-T-dCyd IC50
Outline: as §1

Compound: Nc1ncn([C@H]2CC(O)[C@@H](CO)S2)c(=O)n1 (stereo partly shown) [Aza-T-dCyd, 4′-thio-5-aza-2′-deoxycytidine]
- IC50 (BHT-101): 235 nM
- IC50 (Hs 852.T): > 10000 nM
- IC50 (U-87 MG): 1640 nM
- IC50 (MCF7): 6470 nM
- IC50 (AU565): > 10000 nM
- IC50 (OE33): 161 nM
- IC50 (SJRH30): 291 nM
- IC50 (C32): > 10000 nM
- IC50 (BV-173): 5.32 nM
- IC50 (BT474): > 10000 nM
- IC50 (NCIH441): 1300 nM
- IC50 (NCI-H69): > 10000 nM
- IC50 (Daudi): 451 nM
- IC50 (A375): 66.7 nM
- IC50 (KATO III): 807 nM
- IC50 (Hs 746T): 666 nM
- IC50 (L-428): 365 nM
- IC50 (SW1463): 303 nM
- IC50 (MEG01): 1070 nM
- IC50 (NTERA-2 cl.D1): 42.7 nM
- IC50 (A-673): 698 nM
- IC50 (Colo 320DM): 92.3 nM
- IC50 (H9): 468 nM
- IC50 (HepG2): 892 nM
- IC50 (ACHN): 231 nM
- IC50 (SKO-007): 4290 nM
- IC50 (YAPC): 1050 nM
- IC50 (BT20): > 10000 nM
- IC50 (PSN-1): 191 nM
- IC50 (SU.86.86): 508 nM
- IC50 (MG-63): 990 nM
